Our source for the IC50 and EC50 values is US20220363662A1, “COMPOUNDS AS LXR AGONISTS” (Integral Biosciences Privated Limited, priority 2021, published 2022).

The subject of one assay is A549. In words: Cell viability assay (resazurin) in A549. In kind it is cell-based. As to conditions: Homo sapiens, 96 hr exposure. In a few lines:
(§1)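 Cells in 10% FBS medium (DMEM; MEM for U87MG) exposed 96 h at 37 °C to serially diluted compound, then 4 h with resazurin (1 mM in medium). Fluorescence (ex 535/em 590 nm) background-subtracted, normalised to DMSO; IC50 by four-parameter variable-slope fit.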
(Alamar Blue is a resazurin reagent that responds to reducing activity.)

In a further assay the test system is U87MG. Description: Cell viability assay (resazurin) in U87MG. In kind it is cell-based. As to conditions: Homo sapiens, U-87 MG; 96 hr exposure. As to the method: (§2) HepG2 (ATCC® HB-8065™), hepatocellular carcinoma, A549 (ATCC® CCL-185™), lung epithelial carcinoma, MCF7 (ATCC® HTB-22™), mammary gland epithelial carcinoma, MDA-MB-231 (ATCC® HTB-26™), TNBC, MiaPaCa-2 (ATCC® CRL-1420™) & Panc-1 (ATCC® CRL-1469™), pancreatic epithelial carcinoma, HCT116 (ATCC® CCL-247™), colon epithelial carcinoma and U87MG (ATCC® HTB-14™), brain epithelial carcinoma cell lines respectively were seeded in the respective medium (DMEM, Cat #10569044 with 10% FBS, Cat #16000044; Gibco for HepG2, A549, MCF7, MDA-MB-231, MiaPaCa-2, Panc-1, HCT116 and MEM, Cat #11095080 with 10% FBS for U87MG). Cells were allowed to grow at 37° C. for 24 hr in 5% CO2 (culture conditions) in a Nuaire incubator (humidified). Serially diluted compounds (100 μl) were added to the culture plate 24 hr later and the cultures were further incubated in culture conditions for 96 hr. […] Fluorescence was then measured using a multimodal plate reader (Biotek Synergy Neo) at an excitation wavelength of 535 nm and emission wavelength of 590 nm to obtain relative fluorescence units. Data analysis was done by subtracting the background fluorescence (only medium blank) value from each reading and then normalizing with the vehicle control (DMSO treated cells) to obtain percent survival/proliferation. […]

The test system of the next assay is MiaPaCa-2. In words: Cell viability assay (resazurin) in MiaPaCa-2. In kind it is cell-based. As to conditions: Homo sapiens, MIA PaCa-2; 96 hr exposure. As to the method:
as §2

The next assay has as its target T1, LXR beta (Homo sapiens, UniProt P55055).
T1 construct: 5 μL of 4×LXR beta-LBD was added to each well (final concentration 5 nM); purchased Thermofisher PV4658
T1 sequence (P55055 222-460 limits assumed): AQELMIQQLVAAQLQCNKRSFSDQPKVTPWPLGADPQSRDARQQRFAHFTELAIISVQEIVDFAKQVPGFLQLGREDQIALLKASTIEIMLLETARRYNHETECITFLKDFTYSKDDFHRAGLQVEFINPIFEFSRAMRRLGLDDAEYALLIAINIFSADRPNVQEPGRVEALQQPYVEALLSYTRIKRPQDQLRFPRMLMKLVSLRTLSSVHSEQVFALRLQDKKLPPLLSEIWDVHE
In words: LXR beta agonist assay (Lanthascreen TR-FRET). In kind it is biochemical. As to conditions: LXR beta-LBD 5 nM, read-out: LXR-β EC50. The essentials:
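TR-FRET coactivator recruitment: 5 nM LXR beta-LBD with 100 nM Fl-D22 peptide and 10 nM Tb-anti-GST antibody (final) in Coregulator Buffer G, 60 min at 22° C, read hourly up to 4 hours. Duplicate three-fold titrations from 30 μM; EC50 by variable-slope nonlinear regression.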
In general terms: TR-FRET usually uses a lanthanide donor and a delayed reading to cut background.

For another assay, the system named is HepG2. In words: Cell viability assay (resazurin) in HepG2. It is filed as cell-based. As to conditions: Homo sapiens, 96 hr exposure. In a few lines: as §1
For the next assay, the system named is MDA-MB-231. Description: Cell viability assay (resazurin) in MDA-MB-231. As to conditions: Homo sapiens, 96 hr exposure, read-out: MDA_MB-231 Cell IC50. In kind it is cell-based. The essentials:
as §1

In another assay the test system is MCF7. In words: Cell viability assay (resazurin) in MCF7. As to conditions: Homo sapiens, 96 hr exposure. It is filed as cell-based. As to the method: HepG2 (ATCC® HB-8065™), hepatocellular carcinoma, A549 (ATCC® CCL-185™), lung epithelial carcinoma, MCF7 (ATCC® HTB-22™), mammary gland epithelial carcinoma, MDA-MB-231 (ATCC® HTB-26™), TNBC, MiaPaCa-2 (ATCC® CRL-1420™) & Panc-1 (ATCC® CRL-1469™), pancreatic epithelial carcinoma, HCT116 (ATCC® CCL-247™), colon epithelial carcinoma and U87MG (ATCC® HTB-14™), brain epithelial carcinoma cell lines respectively were seeded in the respective medium (DMEM, Cat #10569044 with 10% FBS, Cat #16000044; Gibco for HepG2, A549, MCF7, MDA-MB-231, MiaPaCa-2, Panc-1, HCT116 and MEM, Cat #11095080 with 10% FBS for U87MG). Cells were allowed to grow at 37° C. for 24 hr in 5% CO2 (culture conditions) in a Nuaire incubator (humidified). Serially diluted compounds (100 μl) were added to the culture plate 24 hr later and the cultures were further incubated in culture conditions for 96 hr. Experiment was terminated at the completion of 96 hr exposure to the drug by replacing the medium with 100 μl of 1 mM of resazurin (R7017; Sigma) prepared in culture medium and the plates were further incubated in culture conditions for 4 hr. Fluorescence was then measured using a multimodal plate reader (Biotek Synergy Neo) at an excitation wavelength of 535 nm and emission wavelength of 590 nm to obtain relative fluorescence units. Data analysis was done by subtracting the background fluorescence (only medium blank) value from each reading and then normalizing with the vehicle control (DMSO treated cells) to obtain percent survival/proliferation. Percent survival at different doses was used to calculate IC50 by fitting the curve to the “four-parameter variable slope logistic model” using Prism Graph Pad.

SMILES strings stand for the structures.

The IC50 is the concentration that inhibits the measured activity by half. A word on the EC50: it is the concentration needed to bring the measured effect to its halfway point. Consider `CN(C)C(=O)c1ccc(N2CCN(C3CC4(C3)CN(C(=O)C(O)(c3ccccc3)C(F)(F)F)C4)CC2)cc1Cl` (stereo not shown) [Compound 1.4, 2-chloro-N,N-dimethyl-4-(4-(2-(3,3,3-trifluoro-2-hydroxy-2-phenylpropanoyl)-2-azaspiro[3.3]heptan-6-yl)piperazin-1-yl)benzamide], for which the IC50 with A549, in the assay with U87MG, in the assay on MiaPaCa-2, in the assay with HepG2, with MDA-MB-231 and in the assay with MCF7 was more than 30 µM throughout. Also, the EC50 at LXR beta was 0.45 µM.
